In patent publication US20220098197A1, “SALTS OF HETEROCYCLIC COMPOUND AND USE THEREOF” (priority 2019, published 2022):
Several values for one entry are separate records, joined by “and”; a condition that tells them apart may be missing. Equal values may be shown once.

What was measured:
[1] = system: RAW264.7 macrophages; assay: In vitro ELISA assay, LPS- or PGD2-stimulated RAW264.7; format: cell-based, mouse; details: CT-NA 10 and 100 μM, dose-dependent
Protocol: For ELISA and RT-PCR, RAW 264.7 macrophages were acclimated to two 12-well plates at 70-80% confluence. Thereafter, the medium in the 12-well plate was replaced with serum-free RPMI-1640 medium for 10-12 hrs and then exposed to CT-NA (10 and 100 μM) for 1 hour. One hour later, one 12-well plate was treated with LPS (100 ng/ml) for 24 hrs, and the other was treated with PGD2 (10 μM) for 24 hrs. After the treatment, the supernatant of the treated cells was collected to measure the protein levels of TNF-α, IL-1β, IL-6, and KC using ELISA kits according to the method of the instructions. Subsequently, RNA samples from each treated plate were extracted and reverse-transcripted into cDNA with HiScript5xQRTSuperMix, and then subjected to RT-PCR using BioRad CFX96 Touch™ real-time PCR detection system (San Diego, Calif.). Similarly, total RNAs extracted from treated isolated peritoneal macrophages were subjected to analyze the mRNA levels of IL-10, TNF-α, IL-6 and KC. The primers used in the RT-PCR reaction were shown in Table 2. β-actin was used as an internal control. The RT-PCR reactions were triplicated and the relative expression of target mRNA was normalized by the respective β-actin.

[2] = Stability test (influencing factors: light, high temperature, high humidity); format: physicochemical
Protocol: Test process: An appropriate amount of each test sample was placed on a clean watch glass without a lid and then placed under the conditions of light 4500 lx±500 lx, high temperature of 60° C., high humidity of 92.5% RH for 5 days and 10 days, respectively. The properties and related substances were determined and the results were compared with the results at day 0 to observe the stability.
The test method for related substances was as follows.
Preparation of test sample solution: About 10 mg of each test sample was placed in a 10 ml volumetric flask, and 50% acetonitrile aqueous solution was added to dissolve sample, and diluted to the mark, shaken well, and filtered to obtain the test sample solution. A precise amount of 10 μl of the test sample solution was taken and injected according to the above chromatographic method, and the maximum single impurity and total impurity were calculated according to the area normalization method.

[3] = Dissolution test of capsules (Chinese Pharmacopoeia 2015, General Method 0931, 2nd Method); format: physicochemical
Protocol: The hydrates obtained hereinabove and the compound of formula A were tested for dissolution rate. The test method was as follows.
Step 1: Pretreating Raw Materials
The samples were passed through a 100 mesh sieve.
Step 2: Blending Raw Materials with Auxiliary Materials
The raw materials and lactose were weighed according to the prescription, mixed in equal increment, sieved and mixed.
The capsules were filled via a capsule filling plate and sealed. The difference of the filling amount was controlled to ±5%. The appearance was inspected to ensure that the sealing was correct and there was no split or deformation.
Test method: dissolution test method (Chinese Pharmacopoeia, edited in 2015, Chapter 4, General Method 0931, the 2nd Method)
Dissolution medium: aqueous solution
Specific test method: The sample was tested following the dissolution test method (Chinese Pharmacopoeia, edited in 2015, Chapter 4, General Method 0931, the 2nd Method). 900 ml aqueous solution was used as the dissolution medium. The speed was 50 rpm. The test was performed in accordance with the method. […] After filtration, the filtrate was precisely measured and quantitatively diluted with the dissolution medium to prepare a solution containing about 10 μg of sample per 1 ml. The absorbance was measured by at 231 nm by UV-Vis spectrophotometry (Chinese Pharmacopoeia, edited in 2015, Chapter 4, General Method 0931, the 2nd Method). An appropriate amount of the control sample was taken, weighed accurately, dissolved in dissolution medium and diluted quantitatively to prepare a solution containing about 10 μg of the sample per 1 ml, and then measured in the same way. The amount of dissolution per capsule was calculated.

[4] = high temperature 60° C., Day 10
[5] = light condition 4500 lx±500 lx, Day 5
[6] = light condition 4500 lx±500 lx, Day 10

Compound: CN([C@@H]1CCc2c(CC(=O)[O-])c3cccnc3n2C1)S(=O)(=O)c1ccc(F)cc1.[Na+] [Sodium salt hydrate]
- protein expression of IL-1β, TNF-α, IL-6 and KC in response to LPS ([1]; LPS (100 ng/ml) 24 hrs): inhibited
- protein expression of IL-1β, TNF-α, IL-6 and KC in response to PGD2 ([1]; PGD2 (10 μM) 24 hrs): inhibited
- stability under high temperature and high humidity conditions (in words) ([2]; 60° C., 92.5% RH, 5 and 10 days): relatively stable
- maximum single impurity % ([2]; Day 0): 0.03%
- property ([2]; Day 0): white powder
- total impurity % ([2]; Day 0): 0.07%
- maximum single impurity % ([2]; high humidity 92.5% RH, Day 5): 0.02%
- property ([2]; high humidity 92.5% RH, Day 5): white powder
- total impurity % ([2]; high humidity 92.5% RH, Day 5): 0.07%
- maximum single impurity % ([2]; high humidity 92.5% RH, Day 10): 0.02%
- property ([2]; high humidity 92.5% RH, Day 10): white powder
- total impurity % ([2]; high humidity 92.5% RH, Day 10): 0.06%
- maximum single impurity % ([2]; high temperature 60° C., Day 5): 0.02%
- property ([2]; high temperature 60° C., Day 5): white powder
- total impurity % ([2]; high temperature 60° C., Day 5): 0.07%
- maximum single impurity % [2, 4]: 0.02%
- property [2, 4]: white powder
- total impurity % [2, 4]: 0.09%
- maximum single impurity % [2, 5]: 0.06%
- property [2, 5]: light yellow powder
- total impurity % [2, 5]: 0.16%
- maximum single impurity % [2, 6]: 0.15%
- property [2, 6]: light yellow powder
- total impurity % [2, 6]: 0.26%
- Dissolution rate, Mean (%), 5 min ([3]; mean of 6 capsules, purified water, 50 rpm, 5 min): 50.5%
- Dissolution rate, Mean (%), 10 min ([3]; mean of 6 capsules, purified water, 50 rpm, 10 min): 76.6%
- Dissolution rate, Mean (%), 15 min ([3]; mean of 6 capsules, purified water, 50 rpm, 15 min): 92.1%
- Dissolution rate, Mean (%), 20 min ([3]; mean of 6 capsules, purified water, 50 rpm, 20 min): 98.6%
- Dissolution rate, Mean (%), 30 min ([3]; mean of 6 capsules, purified water, 50 rpm, 30 min): 100.6%
- Dissolution rate, Mean (%), 45 min ([3]; mean of 6 capsules, purified water, 50 rpm, 45 min): 100.8%
- dissolution rate (in words) ([3]; same method, aqueous dissolution medium): best dissolution rate
- Dissolution rate, 5 min ([3]; single capsules 1-6, purified water, 50 rpm, 5 min, hydrate): 55.8% and 34.3% and 57.9% and 45.5% and 56.7% and 52.8%
- Dissolution rate, 10 min ([3]; single capsules 1-6, purified water, 50 rpm, 10 min, hydrate): 77.8% and 82.6% and 69.0% and 73.6% and 62.2% and 94.6%
- Dissolution rate, 15 min ([3]; single capsules 1-6, purified water, 50 rpm, 15 min, hydrate): 96.6% and 79.1% and 91.7% and 93.3% and 99.1% and 92.7%
- Dissolution rate, 20 min ([3]; single capsules 1-6, purified water, 50 rpm, 20 min, hydrate): 101.8% and 94.8% and 96.2% and 98.3% and 100.1% and 100.2%
- Dissolution rate, 30 min ([3]; single capsules 1-6, purified water, 50 rpm, 30 min, hydrate): 103.4% and 100.7% and 98.0% and 99.1% and 102.2% and 100.2%
- Dissolution rate, 45 min ([3]; single capsules 1-6, purified water, 50 rpm, 45 min, hydrate): 102.8% and 101.5% and 97.5% and 99.7% and 102.7% and 100.9%
